Laboratory results: ChEMBL document CHEMBL4811228, “Design, Synthesis, and Activity Evaluation of Novel Acyclic Nucleosides as Potential Anticancer Agents In Vitro and In Vivo” (J Med Chem, 2021)

Assays:
SW480 = test: Antiproliferative activity against human SW480 cells assessed as reduction in cell viability incubated for 48 hrs by MTT assay; format: functional, cell-based; conditions: SW480, 48 h
HCT-116 = test: Antiproliferative activity against human HCT-116 cells assessed as reduction in cell viability incubated for 48 hrs by MTT assay; format: functional, cell-based; conditions: HCT-116, 48 h

Structure (SMILES) | IC50 (SW480) | IC50 (HCT-116)
OCCCn1cnc2c(Cl)nc(F)nc21 | 29.7 µM | 39.8 µM
O=C(OCC(CCO)n1cnc2c(Cl)ncnc21)c1ccccc1 (racemic) | > 50 µM | > 50 µM
CCCCCCCC(CCO)n1cnc2c(Cl)nc(F)nc21 (racemic) | 26.1 µM | 17.6 µM
CCCCCCC(CCO)n1cnc2c(NC)ncnc21 (racemic) | > 50 µM | > 50 µM
CC(C)(C)[Si](C)(C)OCC(CCO)n1cnc2c(Cl)ncnc21 (racemic) | 31.7 µM | > 50 µM
CCCCCCCC(CCO)n1cnc2c(OC)ncnc21 (racemic) | 23.9 µM | 15.3 µM
CCCCCC(CCO)n1cnc2c(OC)ncnc21 (racemic) | > 50 µM | > 50 µM
CCCCCCC(CCO)n1cnc2c(OC)ncnc21 (racemic) | > 50 µM | > 50 µM
CCCCCCC(CCO)n1cnc2c(Cl)ncnc21 (racemic) | 16.7 µM | 11.9 µM
CCCCCCCC(CCO)n1cnc2c(Cl)nc(Cl)nc21 (racemic) | 13.6 µM | 12.8 µM
CCC(CCO)n1cnc2c(Cl)ncnc21 (racemic) | > 50 µM | > 50 µM
CCCCCCCC(CCO)n1cnc2c(NC)ncnc21 (racemic) | 15.3 µM | 12.5 µM
CCCCCCCCCC(CCO)n1cnc2c(Cl)nc(Cl)nc21 (racemic) | 36.3 µM | 32.6 µM
OCCC(COCc1ccccc1)n1cnc2c(Cl)ncnc21 (racemic) | > 50 µM | > 50 µM
CCCCCC(CCO)n1cnc2c(NC)ncnc21 (racemic) | > 50 µM | > 50 µM
CCCCCCCCC(CCO)n1cnc2c(N(C)C)ncnc21 (racemic) | 21.6 µM | 19.8 µM
CCC(CCO)n1cnc2c(Cl)nc(F)nc21 (racemic) | 19.8 µM | 18.9 µM

Structure (SMILES) | IC50 (SW480) | IC50 (HCT-116)
CC(CCO)n1cnc2c(Cl)nc(F)nc21 (racemic) | 16.8 µM | 19.8 µM
CCCCC(CCO)n1cnc2c(OC)ncnc21 (racemic) | > 50 µM | > 50 µM
CCCCCC(CCO)n1cnc2c(Cl)ncnc21 (racemic) | > 50 µM | > 50 µM
CCCCCCCCC(CCO)n1cnc2c(Cl)nc(F)nc21 (racemic) | 15 µM | 24.2 µM
CCCCCCCCC(CCO)n1cnc2c(Cl)nc(Cl)nc21 (racemic) | 24 µM | 22.2 µM
CCCCCCCCC(CCO)n1cnc2c(OC)ncnc21 (racemic) | 24.6 µM | 12.8 µM
CC(CCO)n1cnc2c(Cl)ncnc21 (racemic) | > 50 µM | > 50 µM
CCCCC(CCO)n1cnc2c(Cl)nc(Cl)nc21 (racemic) | 30.9 µM | 15.5 µM
CCCC(CCO)n1cnc2c(Cl)ncnc21 (racemic) | > 50 µM | > 50 µM
CCCCC(CCO)n1cnc2c(Cl)nc(F)nc21 (racemic) | 13.2 µM | 13.5 µM
CCCCCCC(CCO)n1cnc2c(N(C)C)ncnc21 (racemic) | > 50 µM | > 50 µM
CCCCCCCCCCCCC(CCO)n1cnc2c(Cl)ncnc21 (racemic) | > 50 µM | > 50 µM
CCCC(CCO)n1cnc2c(Cl)nc(F)nc21 (racemic) | 17.2 µM | 16.5 µM
CCCCCCCC(CCO)n1cnc2c(N(C)C)ncnc21 (racemic) | > 50 µM | > 50 µM
CCCCC(CCO)n1cnc2c(Cl)ncnc21 (racemic) | > 50 µM | > 50 µM
CCCCCC(CCO)n1cnc2c(N(C)C)ncnc21 (racemic) | > 50 µM | > 50 µM

Further compounds by falling IC50 (SW480), results first:

IC50 (SW480) | IC50 (HCT-116) | Structure (SMILES)
12.9 µM | 9.96 µM | CCCCCCC(CCO)n1cnc2c(Cl)nc(F)nc21 (racemic)
12.8 µM | 15.4 µM | CCCCCCCCCCCC(CCO)n1cnc2c(NC)ncnc21 (racemic)
12.5 µM | 32 µM | CCCCCCCCCC(CCO)n1cnc2c(Cl)nc(F)nc21 (racemic)
12.4 µM | 12.1 µM | CCCCCCC(CCO)n1cnc2c(Cl)nc(Cl)nc21 (racemic)
12.2 µM | 9.81 µM | CCCCCCCCCC(CCO)n1cnc2c(N(C)C)ncnc21 (racemic)
12 µM | 12.7 µM | CCCCCCCCCCC(CCO)n1cnc2c(NC)ncnc21 (racemic)
11.8 µM | 12 µM | CCCCCCCCCCCC(CCO)n1cnc2c(N(C)C)ncnc21 (racemic)
9.72 µM | 9.48 µM | CCCCCCCCC[C@H](CCOS(C)(=O)=O)n1cnc2c(Cl)ncnc21
9.7 µM | 8.23 µM | CCCCCCCCCCCC(CCO)n1cnc2c(OC)ncnc21 (racemic)
8.57 µM | 8.13 µM | CCCCCCCCC[C@H](CCn1cc(-c2ccccc2)nn1)n1cnc2c(Cl)ncnc21
8.26 µM | 7.53 µM | CCCCCCCCCCC(CCO)n1cnc2c(OC)ncnc21 (racemic)
8.02 µM | 7.78 µM | CC(C)(C)[Si](C)(C)OCC(CCO)n1cnc2c(Cl)nc(F)nc21 (racemic)
7.44 µM | 8.66 µM | CCCCCC(CCO)n1cnc2c(Cl)nc(F)nc21 (racemic)
7.24 µM | 5.17 µM | O=C(OCC(CCO)n1cnc2c(Cl)nc(F)nc21)c1ccccc1 (racemic)
7.17 µM | 5.24 µM | OCCC(COCc1ccccc1)n1cnc2c(Cl)nc(F)nc21 (racemic)
6.01 µM | 6.17 µM | CCCCCC(CCO)n1cnc2c(Cl)nc(Cl)nc21 (racemic)
5.57 µM | 10.9 µM | CCCCCCCCC[C@H](CCOCP(=O)(OCC)OCC)n1cnc2c(Cl)ncnc21

IC50 (SW480) | IC50 (HCT-116) | Structure (SMILES)
5.29 µM | 7.59 µM | CCCCCCCCCCCC(CCO)n1cnc2c(Cl)ncnc21 (racemic)
4.45 µM | 5.41 µM | CCCCCCCCCC(CCO)n1cnc2c(NC)ncnc21 (racemic)
3.82 µM | 10.7 µM | CCCCCCC[C@@H](CCO)n1cnc2c(Cl)ncnc21
3.77 µM | 3.73 µM | CCCCCCCCC(CCO)n1cnc2c(NC)ncnc21 (racemic)
3.63 µM | 4.16 µM | CCCCCCCC(CCO)n1cnc2c(Cl)ncnc21 (racemic)
3.62 µM | 1.05 µM | CCCCCCCCC[C@@H](CCO)n1cnc2c(Cl)ncnc21
3.32 µM | 5.49 µM | CCCCCCCCCCC(CCO)n1cnc2c(N(C)C)ncnc21 (racemic)
3.25 µM | 2.53 µM | CCCCCCCCCC(CCO)n1cnc2c(OC)ncnc21 (racemic)
3.18 µM | 9.58 µM | CCCCCCCCC[C@H](CCCl)n1cnc2c(Cl)ncnc21
3.16 µM | 4.93 µM | CCCCCCCCCCC(CCO)n1cnc2c(Cl)ncnc21 (racemic)
2.93 µM | 2.67 µM | CCCCCCC[C@H](CCO)n1cnc2c(Cl)ncnc21
2.33 µM | 3.4 µM | CCCCCCCC[C@@H](CCO)n1cnc2c(Cl)ncnc21
1.63 µM | 0.45 µM | CCCCCCCCC[C@H](CCO)n1cnc2c(Cl)ncnc21
1.37 µM | 1.65 µM | CCCCCCCCC(CCO)n1cnc2c(Cl)ncnc21 (racemic)
1.22 µM | 1.19 µM | CCCCCCCCC[C@H](CCN=[N+]=[N-])n1cnc2c(Cl)ncnc21
0.32 µM | 1.12 µM | CCCCCCCC[C@H](CCO)n1cnc2c(Cl)ncnc21
